Data: PubChem BioAssay AID1259407 (Chemical Carcinogenesis Research Information System (CCRIS), 2018)
Activity calls are given as the source filed them. No rule for the calls is given here.

Tested on: CCRIS mutagenicity, Ames/micronucleus/aberration tests
Experiment: CCRIS mutagenicity studies
Conditions: Test System: AMES SALMONELLA TYPHIMURIUM, Method: PREINCUBATION

Measured: mutagenic call

C=C(C)/C([O-])=N/[N+](C)(C)CC(C)O (configuration not stated)
inactive: Strain/Indicator: TA97, Metabolic Activation: HAMSTER, LIVER, S-9, AROCLOR 1254 (10 OR 30%) inactive; negative | Strain/Indicator: TA97, Metabolic Activation: NONE inactive; negative | Strain/Indicator: TA97, Metabolic Activation: RAT, LIVER, S-9, AROCLOR 1254 (10 OR 30%) inactive; negative | Strain/Indicator: TA98, Metabolic Activation: HAMSTER, LIVER, S-9, AROCLOR 1254 (10 OR 30%) inactive; negative | Strain/Indicator: TA98, Metabolic Activation: NONE inactive; negative | Strain/Indicator: TA98, Metabolic Activation: RAT, LIVER, S-9, AROCLOR 1254 (10 OR 30%) inactive; negative | Strain/Indicator: TA100, Metabolic Activation: HAMSTER, LIVER, S-9, AROCLOR 1254 (10 OR 30%) inactive; negative | Strain/Indicator: TA100, Metabolic Activation: NONE inactive; negative | Strain/Indicator: TA100, Metabolic Activation: RAT, LIVER, S-9, AROCLOR 1254 (10 OR 30%) inactive; negative | Strain/Indicator: TA1535, Metabolic Activation: HAMSTER, LIVER, S-9, AROCLOR 1254 (10 OR 30%) inactive; negative | Strain/Indicator: TA1535, Metabolic Activation: NONE inactive; negative | Strain/Indicator: TA1535, Metabolic Activation: RAT, LIVER, S-9, AROCLOR 1254 (10 OR 30%) inactive; negative
